The values that follow are results of earlier work, collected in patent publication US20050009793A1, “Treatment of liver disease with active vitamin D compounds” (Novacea, Inc., priority 2002, published 2005).

Each structure is given as a SMILES string.

The conditions of this data set: in vivo.

For the compound `C=C1/C(=C\C=C2/CCC[C@]3(C)C([C@H](C)CC#CC(C)(C)O)=CC[C@@H]23)C[C@@H](O)C[C@@H]1O` [Ro23-7553], the “Hypercalcemic effect compared to calcitriol” value is listed as “reduced hypercalcemic effect”.

Regarding `C=C1/C(=C/C=C2\CCC[C@]3(C)C([C@H](C)CC#CC(O)(C(F)(F)F)C(F)(F)F)=CC[C@@H]23)C[C@@H](O)C[C@@H]1O` [Ro24-5531], the “Hypercalcemic effect compared to calcitriol” value is recorded as “reduced hypercalcemic effect”.
